The subject of experiment [1] is Arabidopsis thaliana seedlings. The experiment is described as follows: Auxin activity, root growth bioassay in A. thaliana seedlings. It is filed as in vivo. The conditions noted are these: 4-days old seedlings, MS-Agar; formulation 0.1, 1, 10, 25% v/v; IAA 1, 10 and 100 nM. The procedure: Auxin Activity • Auxin activity was determined by measuring the growth of the main root in seedlings of Arabidopsis thaliana, and the amount of side roots to estimate the root density according to Iglesias et al. (2014). Briefly, 4-days old A. thaliana seedlings were grown in a MS-Agar medium supplemented with different concentrations of the formulation of Example 5 (0.1, 1, 10, 25% v/v). As reference, different concentrations of indole-acetic acid (IAA) were used (1, 10 and 100 nM). Three independent assays were carried out, with 8 seedlings per treatment (N=24).

Experiment [2] relates to cucumber cotyledons (Cucumis sativus var. Runner). The experiment is described as follows: Cytokinin activity, cucumber cotyledons greening bioassay (chlorophyll content). The conditions noted are these: incubated 20 h, then light 16 hs; SPAD detector and acetone extraction. As to the method:
Cytokinin Activity • Cytokinin activity was determined by quantifying the chlorophyll content in cucumber cotyledons (Fletcher et al., 1982). Briefly, cucumber (Cucumis sativus var. Runner) seeds were germinated and grown in darkness for 7 days. Then, the cotyledons were cut and incubated for 20 h under different concentrations of the formulation of Example 5 (0.1, 1, 10 and 100% v/v). As a positive control, different concentrations of a cytokinin analog, kinetin, were used (0.01, 0.1, 1 and 10 μg/ml). Then the cotyledons were exposed to light for 16 hs, and the chlorophyll content was determined by two methods: by means of a manual SPAD detector (Chlorophyll meter SPAD-502, Konica Minolta), and by extracting the chlorophyll with acetone (Arnon 1949). Three independent assays were carried out, with 8 cotyledons per treatment (N=24).

As for `O=C(O)Cc1c[nH]c2ccccc12` [IAA, indole-acetic acid], in experiment [1], the “growth of the main root” value is listed as “dose-dependent shortening of the main root” and the “number of side roots” value is recorded as “increase in the number of side roots”.

For `c1coc(CNc2ncnc3[nH]cnc23)c1` [kinetin], the “greening of cotyledons (chlorophyll content)” value in experiment [2] was “stimulated the greening of the etiolated cotyledons depending on the dose”.

These data come from patent publication US20240138417A1, “TRICHODERMA-BASED BIOENHANCER FOR FOLIAR APPLICATION IN PLANTS” (YPF TECNOLOGÍA S.A., priority 2022, published 2024).
